{
  "source": "paper PMC11979273",
  "about": "“A phase I study to evaluate the safety, tolerability, and pharmacokinetics of HEC113995PA·H2O, a novel dual-acting serotonergic antidepressant, in healthy subjects” (Frontiers in Pharmacology, 2025)",
  "assay": "Single ascending-dose (SAD) study, plasma pharmacokinetics",
  "assay_type": "in vivo, human",
  "method": "The study comprised a total of 7 dose groups (2.5, 5, 10, 20, 40, 60, and 80 mg groups, respectively). The first dose group (2.5 mg) consisted of 8 subjects, with 6 receiving HEC113995PA·H2O and 2 receiving placebo. Dose groups 2–7 each included 10 subjects, with 8 subjects receiving HEC113995PA·H2O and 2 subjects receiving placebo. Male and female participants were randomly assigned to the groups. Serial blood samples were collected before and after drug administration to determine the plasma concentration of pharmacokinetics (PK) and to evaluate the pharmacokinetic characteristics. The time points of blood collection and safety evaluation of PK in the second to seventh dose groups were adjusted based on the results of the first dose group. Drug safety and tolerability were evaluated on day 2 and 4 in the first dose group and on day 4 and 7 in the second to seventh dose groups. The trial was conducted in a dose-escalation manner, with progression to the next dose arm only after the safety of the previous arm had been evaluated. In the fourth group (20 mg group), in addition to blood samples, urine and stool samples were also collected for in vivo drug metabolic transformation studies.\nIn the first dose group of single ascending-dose study, PK blood samples were collected at 0.5 h before administration and 0.5, 1, 1.5, 2, 2.5, 3, 4, 5, 6, 8, 10, 12, 24, 36, 48, and 72 h after administration. In other SAD groups, MAD groups and food effect study, PK blood samples were collected at 0.5 h before administration, and 1, 2, 3, 4, 5, 6, 7, 8, 10, 12, 24, 48, 72, 96, 120 and 144 h after administration. Approximately 4 mL of venous blood was obtained from each collection and placed in a vacuum collection vessel containing K2EDTA anticoagulant. The blood was centrifuged and packed according to the instruction provided by the Biological Sample Detection and Analysis Unit. Briefly, all samples were centrifuged at 4°C, 1,500 g for 10 min within 0.5 h after blood collection. After centrifugation, the plasma was aliquoted into two cryogenic storage tubes. The first tube (Tube A) contained at least 0.8 mL of plasma for analytical testing, and the remaining plasma is allocated into the backup tube (Tube B). The plasma samples were stored at −80°C within 1 h after aliquoting for further analysis.\nThe concentration of HEC113995PA·H2O in human plasma samples (K2EDTA) was quantitatively analyzed using the LC-MS/MS method. Plasma samples (50 μL) were processed using protein precipitation with 5 μL deuterated internal standard (HEC124659) and 100 μL acetonitrile. The Shimadzu LCMS-8060 system coupled with a GL Sciences Inc. InertSustain AQ-C18 HP column (50 × 2.1 mm, 3 μm) achieved chromatographic separation through gradient elution using 0.04% TFA aqueous solution (pH 2.1) and acetonitrile at 0.4 mL/min. ESI-positive mode detection employed optimized parameters: 300°C interface temperature, 250°C DL temperature, 3 L/min nebulizer gas, and 400°C heating block temperature.\nUsing WinNonlin 7.0 for non-compartmental analysis (NCA), pharmacokinetic (PK) parameters were meticulously calculated based on the actual sampling times for plasma, urine, and fecal samples from each subject post-administration. These parameters encompassed a comprehensive range, including the area under the concentration–time curve (AUC), AUC from time zero (pre-dose) to the time of the last measurable concentration (AUC0-t), and AUC from time zero (pre-dose) to infinity (AUC0-∞). Additionally, maximum observed plasma concentration (Cmax), time to achieve maximum plasma concentration (Tmax), terminal elimination half-life (t1/2), elimination rate constant (Ke), apparent volume of distribution (Vd/F), clearance rate (CL/F), and mean residence time (MRT) were also determined. The AUC0-t and AUC0-∞ values were computed using the linear trapezoidal rule method. Tmax and Cmax were ascertained based on the actual observed data. […]",
  "note": "Like-named read-outs stand apart in the source and are kept apart here.",
  "data": [
    {"smiles": "Cc1nc(-c2cnc(N3CCN(CCCc4c[nH]c5ccc(C#N)cc45)CC3)nc2)sc1C(N)=O", "note": "[HEC113995PA·H2O]", "values": [
      {"measurement": "k el", "setting": "both sexes, human, plasma, oral, SAD single dose 10 mg, N = 8, mean (SD)", "result": "7.11e-06", "unit": "s⁻¹"},
      {"measurement": "AUC(0-inf)", "setting": "both sexes, human, plasma, oral, SAD single dose 10 mg, N = 8, mean (SD), read-out: AUC0-∞", "result": 832, "unit": "ng·h/mL"},
      {"measurement": "MRT", "setting": "both sexes, human, plasma, oral, SAD single dose 10 mg, N = 8, mean (SD), read-out: MRT", "result": 39.1, "unit": "h"},
      {"measurement": "Vd/F", "setting": "both sexes, human, plasma, oral, SAD single dose 10 mg, N = 8, mean (SD), read-out: Vz/F", "result": 494, "unit": "L"},
      {"measurement": "half-life", "setting": "both sexes, human, plasma, oral, SAD single dose 10 mg, N = 8, mean (SD), read-out: t1/2 (converted)", "result": 28, "unit": "h"},
      {"measurement": "Tmax", "setting": "both sexes, human, plasma, oral, SAD single dose 10 mg, N = 8, median (min, max), read-out: Tmax", "result": 6, "unit": "h"},
      {"measurement": "k el", "setting": "both sexes, human, plasma, oral, SAD single dose 20 mg, N = 8, mean (SD)", "result": "5.19e-06", "unit": "s⁻¹"},
      {"measurement": "AUC(0-inf)", "setting": "both sexes, human, plasma, oral, SAD single dose 20 mg, N = 8, mean (SD), read-out: AUC0-∞", "result": 1520, "unit": "ng·h/mL"},
      {"measurement": "MRT", "setting": "both sexes, human, plasma, oral, SAD single dose 20 mg, N = 8, mean (SD), read-out: MRT", "result": 42.2, "unit": "h"},
      {"measurement": "Vd/F", "setting": "both sexes, human, plasma, oral, SAD single dose 20 mg, N = 8, mean (SD), read-out: Vz/F", "result": 772, "unit": "L"},
      {"measurement": "half-life", "setting": "both sexes, human, plasma, oral, SAD single dose 20 mg, N = 8, mean (SD), read-out: t1/2 (converted)", "result": 38.6, "unit": "h"},
      {"measurement": "Tmax", "setting": "both sexes, human, plasma, oral, SAD single dose 20 mg, N = 8, median (min, max), read-out: Tmax", "result": 8, "unit": "h"},
      {"measurement": "k el", "setting": "both sexes, human, plasma, oral, SAD single dose 40 mg, N = 8, mean (SD)", "result": "6.08e-06", "unit": "s⁻¹"},
      {"measurement": "AUC(0-inf)", "setting": "both sexes, human, plasma, oral, SAD single dose 40 mg, N = 8, mean (SD), read-out: AUC0-∞", "result": 3010, "unit": "ng·h/mL"},
      {"measurement": "MRT", "setting": "both sexes, human, plasma, oral, SAD single dose 40 mg, N = 8, mean (SD), read-out: MRT", "result": 38.1, "unit": "h"},
      {"measurement": "Vd/F", "setting": "both sexes, human, plasma, oral, SAD single dose 40 mg, N = 8, mean (SD), read-out: Vz/F", "result": 661, "unit": "L"},
      {"measurement": "half-life", "setting": "both sexes, human, plasma, oral, SAD single dose 40 mg, N = 8, mean (SD), read-out: t1/2 (converted)", "result": 32.2, "unit": "h"},
      {"measurement": "Tmax", "setting": "both sexes, human, plasma, oral, SAD single dose 40 mg, N = 8, median (min, max), read-out: Tmax", "result": 5, "unit": "h"},
      {"measurement": "k el", "setting": "both sexes, human, plasma, oral, SAD single dose 60 mg, N = 8, mean (SD)", "result": "6.11e-06", "unit": "s⁻¹"},
      {"measurement": "AUC(0-inf)", "setting": "both sexes, human, plasma, oral, SAD single dose 60 mg, N = 8, mean (SD), read-out: AUC0-∞", "result": 4240, "unit": "ng·h/mL"},
      {"measurement": "MRT", "setting": "both sexes, human, plasma, oral, SAD single dose 60 mg, N = 8, mean (SD), read-out: MRT", "result": 35.3, "unit": "h"},
      {"measurement": "Vd/F", "setting": "both sexes, human, plasma, oral, SAD single dose 60 mg, N = 8, mean (SD), read-out: Vz/F", "result": 762, "unit": "L"},
      {"measurement": "half-life", "setting": "both sexes, human, plasma, oral, SAD single dose 60 mg, N = 8, mean (SD), read-out: t1/2 (converted)", "result": 36.6, "unit": "h"},
      {"measurement": "Tmax", "setting": "both sexes, human, plasma, oral, SAD single dose 60 mg, N = 8, median (min, max), read-out: Tmax", "result": 5.5, "unit": "h"},
      {"measurement": "k el", "setting": "both sexes, human, plasma, oral, SAD single dose 80 mg, N = 8, mean (SD)", "result": "6.08e-06", "unit": "s⁻¹"},
      {"measurement": "AUC(0-inf)", "setting": "both sexes, human, plasma, oral, SAD single dose 80 mg, N = 8, mean (SD), read-out: AUC0-∞", "result": 5870, "unit": "ng·h/mL"},
      {"measurement": "MRT", "setting": "both sexes, human, plasma, oral, SAD single dose 80 mg, N = 8, mean (SD), read-out: MRT", "result": 40.5, "unit": "h"},
      {"measurement": "Vd/F", "setting": "both sexes, human, plasma, oral, SAD single dose 80 mg, N = 8, mean (SD), read-out: Vz/F", "result": 666, "unit": "L"},
      {"measurement": "half-life", "setting": "both sexes, human, plasma, oral, SAD single dose 80 mg, N = 8, mean (SD), read-out: t1/2 (converted)", "result": 33.4, "unit": "h"},
      {"measurement": "Tmax", "setting": "both sexes, human, plasma, oral, SAD single dose 80 mg, N = 8, median (min, max), read-out: Tmax", "result": 6, "unit": "h"},
      {"measurement": "AUC(0-t)", "setting": "both sexes, human, plasma, oral, across single-dose groups 2.5–80 mg, read-out: AUC0-t, geometric mean range", "result": "172 to 5580", "unit": "ng·h/mL"},
      {"measurement": "AUC(0-inf)", "setting": "both sexes, human, plasma, oral, across single-dose groups 2.5–80 mg, read-out: AUC0-∞, geometric mean range", "result": "214 to 5790", "unit": "ng·h/mL"},
      {"measurement": "AUC(0-t)", "setting": "both sexes, human, plasma, oral, across single-dose groups 2.5–80 mg, read-out: AUC0–24h, geometric mean range", "result": "88.4 to 2680", "unit": "ng·h/mL"},
      {"measurement": "Cmax", "setting": "both sexes, human, plasma, oral, across single-dose groups 2.5–80 mg, read-out: Cmax, geometric mean range", "result": "5.1 to 157", "unit": "ng/mL"},
      {"measurement": "Vd/F", "setting": "both sexes, human, plasma, oral, across single-dose groups 2.5–80 mg, read-out: apparent volume of distribution (Vz/F), range of arithmetic means", "result": "430 to 772", "unit": "L"},
      {"measurement": "half-life", "setting": "both sexes, human, plasma, oral, across single-dose groups 2.5–80 mg, read-out: half-life (t1/2), range of arithmetic means", "result": "27.2 to 38.6", "unit": "h"},
      {"measurement": "MRT", "setting": "both sexes, human, plasma, oral, across single-dose groups 2.5–80 mg, read-out: mean residence time (MRT), range of arithmetic means", "result": "35.3 to 44.8", "unit": "h"},
      {"measurement": "Tmax", "setting": "both sexes, human, plasma, oral, across single-dose groups 2.5–80 mg, read-out: median time to peak plasma concentration (Tmax), range", "result": "5 to 8", "unit": "h"},
      {"measurement": "AUC(0-inf)", "setting": "both sexes, human, plasma, po, SAD single dose 20 mg, N = 8, mean (SD), read-out: AUC0-∞", "result": 1520, "unit": "ng·h/mL"},
      {"measurement": "Cmax higher than Vilazodone", "setting": "equivalent 20 mg doses (40.6 vs. 28.5 ng/mL)", "result": 42, "unit": "%"},
      {"measurement": "AUC0-∞ greater than Vilazodone", "setting": "equivalent 20 mg doses (1,519.6 vs. 502 h ng/mL)", "result": "threefold greater"}
    ]}
  ]
}
